System: KO mice
Experiment: Survival of KO mice treated with PEGylated htCBS C15S conjugates
Assay type: in vivo, mouse
Procedure: A Kaplan Meyer survival curve was plotted of KO mice injected three times weekly with 7.5 mg/kg htCBS C15S PEGylated with ME-200MA0B (n=24), ME-400MA (n=31=13F+18M), or ME-200GS (n=28=14F+14M), and a group of KO mice (n=44) that was injected with PBS as a control. Lactating mothers were maintained on betaine water, and after weaning, the pups (day 21) were put on regular water with no betaine. The ability of the injected enzyme to rescue KO pups was tested.
After an initial 35 days (5 weeks) long treatment to prevent neonatal lethality of KO mice, the KO mice treated with 20NHS PEG-htCBS C15S were divided into two groups. One group (5 W) stopped receiving any treatment apart from the initial one, while the other group (CONT) continued with the same regimen for up to 120 days of age (7.5 mg/kg, SC, 3× a week).

Question: With “20NHS PEG-htCBS C15S: htCBS C15S PEGylated with ME-200GS PEG (20 kDa linear NHS ester-activated PEG)” as the substance, how does the survival (7.5 mg/kg three times weekly, day 21) read?
Answer: The survival was “about 97%”.

Question: What about the “survival of all mice” value (continuous 7.5 mg/kg SC 3x a week up to 120 days of age) of the same substance?
Answer: The value was “at least 119 days”.

Question: And the “survival at 119 days of age” value (treatment terminated after initial 35 days)?
Answer: The value was “about 85%”.

— patent US12194082B2, “Compositions and methods for treatment of homocystinuria” (THE REGENTS OF THE UNIVERSITY OF COLORADO, priority 2016, dated 2025)
